Results from PubChem BioAssay (NCI).
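The compound was tested at five concentrations on cells cultured in 96-well plates, with a 48-hour exposure period. TGI marks complete inhibition of growth.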

Legend:
Assay in all cases: NCI-60 cell line screen, 48 h
[1] = tested on: HCC-2998 colon
[2] = tested on: DMS 114 small cell lung
[3] = tested on: LOX IMVI melanoma
[4] = tested on: K-562 leukemia
[5] = tested on: OVCAR-4 ovarian
[6] = tested on: SK-MEL-2 melanoma
[7] = tested on: RXF 393 renal
[8] = tested on: KM20L2 colon
[9] = tested on: DLD-1 colon
[10] = tested on: M19-MEL melanoma
[11] = tested on: MDA-MB-231 breast
[12] = tested on: T-47D breast

SMILES | TGI [1] [µM] | TGI [2] [µM] | TGI [3] [µM] | TGI [4] [µM] | TGI [5] [µM] | TGI [6] [µM] | TGI [7] [µM] | TGI [8] [µM] | TGI [9] [µM] | TGI [10] [µM] | TGI [11] [µM] | TGI [12] [µM]
CC1CCN(c2cc(-c3cc4ccccc4o3)oc(=O)c2C#N)CC1 | > 100 | > 100 | > 100 | > 100 | > 100 | > 100 | > 100 | > 100 | > 100 |  |  | 
CC1=NN(C(=O)c2ccc(C)cc2)C(=O)C1N=Nc1ccccc1C(=O)O (stereo not given) | > 100 | > 100 | > 100 | > 100 | > 100 | > 100 | > 100 | > 100 | > 100 | > 100 |  | 
COc1cccc2c1[C@H]1OC(=O)NC1CCCCC2 (stereo not given in full) | > 100 | > 100 | > 100 | > 100 | > 100 | > 100 | > 100 | > 100 | > 100 | > 100 |  | 
O[C@]12c3ccccc3C1CCCCC2N1CCOCC1 (stereo not given in full) |  | > 100 | > 100 | > 100 | > 100 | > 100 | > 100 | > 100 |  | > 100 |  | 
O=C(O)Cc1ccc(Oc2nc3ccccc3nc2-c2ccccc2)cc1 | 99.5 |  | > 100 | > 100 | > 100 | > 100 | 98.2 |  |  |  | > 100 | > 100
CC(=O)Oc1ccc(/C=C/C(=O)NCCOC(=O)/C=C/c2ccc(OC(C)=O)c(OC(C)=O)c2)cc1OC(C)=O | > 100 |  | 38.6 | > 100 | > 100 | > 100 | 47.4 |  |  |  | > 100 | 98.9
N/C(=N\N=C/c1cc([N+](=O)[O-])cc([N+](=O)[O-])c1O)NO | > 100 | > 100 | > 100 | > 91.2 | > 100 | > 100 | > 100 | > 100 | > 100 | > 100 |  | 
COc1cccc(/C=N/[N-]C(N)=O)c1[O-].[OH3+].[Pd+2] | > 100 |  | > 100 | > 100 | > 100 | > 100 | > 100 | > 100 |  |  |  | 
CC(C)=NNc1ncnc2nc[nH]c12 | 32 |  | > 100 | > 100 | > 100 | > 67.8 | > 100 |  |  |  | > 94.3 | > 79.1
CCN(CC)C(=S)S | > 100 |  | > 100 | 30.1 |  | > 100 | > 100 | > 100 | > 100 | > 37.5 |  | 
NC(N)=N/N=C\c1c(-c2ccccc2)nc2sccn12 | 16.8 |  | 30.1 | > 100 | 29.5 | 28.6 | 26.3 |  |  |  | 27.3 | 29.1
CCN(CCCl)c1cc(CN(C)C)cc(NC(=O)c2cc(C(=O)Nc3cc(CN(C)C)cc(N(CC)CCCl)c3)n(C)n2)c1 | 2.11 |  | 0.26 | 1.12 | 2.8 | 3.3 | 2.08 |  |  |  | 4.06 | 6.43
CC(=O)O[C@H]1C[C@H]2[C@@H]([C@H](OC(C)=O)C[C@@H]3CC4(CC[C@@]32C)OOC2(CCCCC2)OO4)[C@@H]2CC[C@H]([C@H](C)CCC(=O)O)[C@@]12C | 25 |  | 15.8 | 23.7 | 9.38 | 26.5 | 31.3 |  |  |  | 34.1 | 45.7
